Here are results for two compounds from ChEMBL document CHEMBL1201862, “PubChem BioAssay data set” (2004).

Calls of active or inactive are those of the source.

Experiment [1] addresses T1, RNA-binding protein pos-1 (Caenorhabditis elegans, UniProt G5EF15).
T1 sequence (G5EF15 whole entry): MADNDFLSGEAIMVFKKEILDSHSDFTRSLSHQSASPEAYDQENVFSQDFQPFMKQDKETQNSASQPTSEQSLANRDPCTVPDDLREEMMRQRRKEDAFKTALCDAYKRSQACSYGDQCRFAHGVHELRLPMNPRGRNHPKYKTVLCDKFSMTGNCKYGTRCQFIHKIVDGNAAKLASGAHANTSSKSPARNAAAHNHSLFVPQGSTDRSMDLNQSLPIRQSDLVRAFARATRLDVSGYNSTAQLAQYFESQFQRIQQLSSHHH
Nature of the experiment: disruptors of C. elegans POS-1 RNA interaction – biochemical, fluorescence polarization, dose response (AID 1964).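 Further: purified POS-1 fused to maltose binding protein made in E. coli; potency of compounds blocking POS-1 binding to fluorescent RNA.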 On the technique in general: Polarisation of emitted light reports the rotation of a fluorescent probe.

Experiment [2] deals with T2, Zinc finger protein mex-5 (Caenorhabditis elegans, UniProt Q9XUB2).
T2 sequence (Q9XUB2 whole entry): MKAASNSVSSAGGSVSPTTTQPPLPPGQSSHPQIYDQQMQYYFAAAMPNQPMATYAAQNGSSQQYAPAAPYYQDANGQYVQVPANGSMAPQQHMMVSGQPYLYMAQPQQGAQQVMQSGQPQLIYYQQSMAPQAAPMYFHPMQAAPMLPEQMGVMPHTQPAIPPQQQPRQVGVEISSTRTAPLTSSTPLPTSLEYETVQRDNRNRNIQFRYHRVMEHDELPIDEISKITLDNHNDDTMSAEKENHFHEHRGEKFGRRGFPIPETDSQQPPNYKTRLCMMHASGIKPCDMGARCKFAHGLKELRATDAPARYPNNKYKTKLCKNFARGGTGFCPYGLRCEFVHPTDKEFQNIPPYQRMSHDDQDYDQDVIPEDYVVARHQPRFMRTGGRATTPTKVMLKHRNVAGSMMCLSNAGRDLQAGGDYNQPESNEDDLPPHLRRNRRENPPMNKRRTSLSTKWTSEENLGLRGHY
Nature of the experiment: potency of MEX-5 RNA-binding blockers – biochemical, C. elegans, fluorescence polarization, dose response (AID 1960).

Experiment [3] addresses T3, Voltage-gated N-type calcium channel alpha-1B subunit/Amyloid beta A4 precursor protein-binding family A member 1 (Homo sapiens, UniProt Q00975+Q02410). Format: protein assay.
Experiment [4] deals with T3, Voltage-gated N-type calcium channel alpha-1B subunit/Amyloid beta A4 precursor protein-binding family A member 1. Format: protein assay. The source holds these as a separate data set.
Experiment [5] has as its target Induced myeloid leukemia cell differentiation protein Mcl-1 (Homo sapiens, UniProt Q07820). Format: functional.
The target in experiment [6] is T4, Hexokinase HKDC1 (Homo sapiens, UniProt Q2TB90).
T4 sequence (Q2TB90 whole entry): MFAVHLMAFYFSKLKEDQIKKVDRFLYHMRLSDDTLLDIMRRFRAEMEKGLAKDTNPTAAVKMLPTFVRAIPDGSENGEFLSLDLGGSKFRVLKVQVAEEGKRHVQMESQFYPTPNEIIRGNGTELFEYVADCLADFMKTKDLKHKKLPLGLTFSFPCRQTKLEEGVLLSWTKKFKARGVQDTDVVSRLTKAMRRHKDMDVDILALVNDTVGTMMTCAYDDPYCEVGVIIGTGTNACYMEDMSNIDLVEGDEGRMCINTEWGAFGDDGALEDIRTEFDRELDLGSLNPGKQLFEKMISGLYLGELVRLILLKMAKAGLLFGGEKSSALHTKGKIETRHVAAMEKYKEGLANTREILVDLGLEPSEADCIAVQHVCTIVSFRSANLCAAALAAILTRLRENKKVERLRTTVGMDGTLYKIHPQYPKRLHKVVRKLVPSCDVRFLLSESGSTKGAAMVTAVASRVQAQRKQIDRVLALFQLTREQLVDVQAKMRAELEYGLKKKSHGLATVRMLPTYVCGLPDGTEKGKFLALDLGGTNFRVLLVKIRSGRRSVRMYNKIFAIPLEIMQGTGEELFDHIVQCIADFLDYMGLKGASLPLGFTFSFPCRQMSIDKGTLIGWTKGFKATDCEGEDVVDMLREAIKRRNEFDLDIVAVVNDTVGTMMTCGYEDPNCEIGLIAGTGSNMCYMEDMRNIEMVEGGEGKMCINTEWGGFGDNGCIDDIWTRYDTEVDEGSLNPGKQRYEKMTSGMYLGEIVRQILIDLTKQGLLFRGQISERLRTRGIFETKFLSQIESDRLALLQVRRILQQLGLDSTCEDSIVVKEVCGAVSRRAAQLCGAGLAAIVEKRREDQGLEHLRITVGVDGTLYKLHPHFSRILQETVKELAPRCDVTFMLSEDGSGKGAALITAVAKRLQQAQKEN
Briefly: inhibition of HKDC1 glucose phosphorylation – biochemical, W721R variant, dose response (AID 504729). Format: functional.

Experiment [7] has as its system Vero. Nature of the experiment: viability of Vero cells under compound – cytotoxicity control for flavivirus capping enzyme inhibitors (AID 588742). Conditions: Chlorocebus sabaeus. The class given is functional.
Experiment [8] has as its system Vero. Nature of the experiment: cells. The class given is functional. Conditions: Chlorocebus sabaeus.
In experiment [9] the target is Genome polyprotein (dengue virus type 2, UniProt P29990). Nature of the experiment: flavivirus cap methylation enzyme inhibition – biochemical, confirmation dose response, primary screen (AID 588689). Format: functional.
Experiment [10] deals with T5, Polyadenylate-binding protein 1 (Homo sapiens, UniProt P11940). Nature of the experiment: MLLE binding blockers, Cy5 peptide tracer – biochemical, fluorescence polarization, Cy5-PAM2 peptide, secondary, miRNA deadenylation inhibitor project, dose response (AID 602260). Format: functional. Conditions: read-out: IC50_Mean.
The target in experiment [11] is T5, Polyadenylate-binding protein 1. Nature of the experiment: MLLE domain peptide-binding blockers, IC50 – biochemical, fluorescence polarization, FITC-PAM2 peptide, dose response (AID 602259). The class given is functional. As to conditions: read-out: IC50_Mean.
Experiment [12] deals with T6, Histone-lysine N-methyltransferase NSD2 (Homo sapiens, UniProt O96028).
T6 sequence (O96028 whole entry): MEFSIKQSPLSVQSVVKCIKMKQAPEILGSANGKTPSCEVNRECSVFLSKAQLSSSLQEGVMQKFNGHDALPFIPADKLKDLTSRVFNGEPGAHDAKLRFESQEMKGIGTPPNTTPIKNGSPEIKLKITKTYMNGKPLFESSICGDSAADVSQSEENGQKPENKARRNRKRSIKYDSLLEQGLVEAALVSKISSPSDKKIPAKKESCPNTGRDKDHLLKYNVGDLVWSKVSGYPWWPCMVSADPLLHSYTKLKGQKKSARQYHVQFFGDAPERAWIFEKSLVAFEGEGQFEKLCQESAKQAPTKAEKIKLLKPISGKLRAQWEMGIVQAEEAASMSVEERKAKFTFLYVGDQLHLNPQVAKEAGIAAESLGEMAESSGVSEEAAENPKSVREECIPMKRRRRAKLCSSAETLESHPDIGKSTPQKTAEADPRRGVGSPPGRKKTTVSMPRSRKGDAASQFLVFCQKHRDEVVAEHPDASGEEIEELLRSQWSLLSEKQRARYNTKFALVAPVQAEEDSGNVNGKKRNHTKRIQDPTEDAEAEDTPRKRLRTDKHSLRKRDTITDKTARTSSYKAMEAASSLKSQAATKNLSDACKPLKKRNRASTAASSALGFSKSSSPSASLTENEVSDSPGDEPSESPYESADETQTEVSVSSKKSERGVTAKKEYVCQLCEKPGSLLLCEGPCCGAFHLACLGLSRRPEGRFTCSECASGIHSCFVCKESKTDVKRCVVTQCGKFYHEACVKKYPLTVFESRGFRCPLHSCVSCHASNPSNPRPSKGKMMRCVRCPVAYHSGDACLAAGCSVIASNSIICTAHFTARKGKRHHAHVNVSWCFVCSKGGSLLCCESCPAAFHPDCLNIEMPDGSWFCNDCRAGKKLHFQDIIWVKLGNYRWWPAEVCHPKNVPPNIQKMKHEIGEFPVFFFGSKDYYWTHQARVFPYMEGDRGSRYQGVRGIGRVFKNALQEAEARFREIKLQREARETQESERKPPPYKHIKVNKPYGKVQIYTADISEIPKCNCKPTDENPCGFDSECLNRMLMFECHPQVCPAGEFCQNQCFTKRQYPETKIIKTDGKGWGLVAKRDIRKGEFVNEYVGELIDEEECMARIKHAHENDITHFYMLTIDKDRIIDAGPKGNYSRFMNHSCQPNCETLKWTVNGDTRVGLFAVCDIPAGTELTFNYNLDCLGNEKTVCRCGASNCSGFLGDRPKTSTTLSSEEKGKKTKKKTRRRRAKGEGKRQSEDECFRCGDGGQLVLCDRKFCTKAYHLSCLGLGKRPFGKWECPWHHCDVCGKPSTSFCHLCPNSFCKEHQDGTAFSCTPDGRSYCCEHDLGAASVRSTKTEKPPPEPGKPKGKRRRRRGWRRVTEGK
The class given is biochemical.

Experiment [13] concerns the target Bcl-2-like protein 10 (Homo sapiens, UniProt Q9HD36). Nature of the experiment: Bcl-B/TR3 peptide binding disruption – biochemical, fluorescence polarization, FITC-TR3 peptide, selectivity assay for Bfl-1 inhibitor project, primary screen (AID 748).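 Further: fluorescence polarization from a fluorescein-labelled TR3 peptide binding purified Bcl-B.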
For experiment [14], the target named is Cytochrome P450 2C19 (Homo sapiens, UniProt P33261). Briefly: Cytochrome panel assay with activity outcomes. Panel member name: p450-cyp2c19 Compounds with AC50 equal or less than 10 uM are considered active. The class given is functional. Conditions: read-out: AC50.
Experiment [15] has as its target T7, Replicative DNA helicase DnaB (Mycobacterium tuberculosis, UniProt P9WMR3).
T7 sequence (P9WMR3 whole entry): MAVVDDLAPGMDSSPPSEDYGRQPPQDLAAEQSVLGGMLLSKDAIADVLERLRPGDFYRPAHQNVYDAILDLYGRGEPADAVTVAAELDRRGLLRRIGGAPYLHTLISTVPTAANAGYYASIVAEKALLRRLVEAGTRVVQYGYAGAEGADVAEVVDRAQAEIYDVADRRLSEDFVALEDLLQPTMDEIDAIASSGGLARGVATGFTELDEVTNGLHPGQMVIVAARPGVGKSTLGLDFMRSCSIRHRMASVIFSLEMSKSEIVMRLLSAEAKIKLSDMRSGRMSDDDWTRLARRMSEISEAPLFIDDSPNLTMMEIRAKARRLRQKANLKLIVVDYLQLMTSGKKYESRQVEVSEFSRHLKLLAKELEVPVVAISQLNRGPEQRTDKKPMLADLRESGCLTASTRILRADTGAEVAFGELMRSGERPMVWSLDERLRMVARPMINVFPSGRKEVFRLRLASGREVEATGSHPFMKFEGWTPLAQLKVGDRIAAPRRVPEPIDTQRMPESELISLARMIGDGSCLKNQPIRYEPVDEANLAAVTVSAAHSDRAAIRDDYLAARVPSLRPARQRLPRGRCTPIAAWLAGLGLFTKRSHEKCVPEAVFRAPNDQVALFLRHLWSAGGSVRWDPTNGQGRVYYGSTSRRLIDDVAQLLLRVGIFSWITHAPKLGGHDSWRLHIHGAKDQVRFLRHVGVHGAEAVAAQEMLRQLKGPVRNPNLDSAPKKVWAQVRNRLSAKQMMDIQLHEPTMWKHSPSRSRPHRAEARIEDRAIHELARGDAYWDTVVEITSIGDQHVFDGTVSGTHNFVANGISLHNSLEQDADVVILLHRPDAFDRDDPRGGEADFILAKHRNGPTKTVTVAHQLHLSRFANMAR
Briefly: DnaB intein splicing inhibitors, dose response, biochemical, cell-free fluorescence (AID 449749). The class given is functional.

In experiment [16] the target is T8, Protein RecA (Mycobacterium tuberculosis, UniProt P9WHJ3).
T8 sequence (P9WHJ3 whole entry): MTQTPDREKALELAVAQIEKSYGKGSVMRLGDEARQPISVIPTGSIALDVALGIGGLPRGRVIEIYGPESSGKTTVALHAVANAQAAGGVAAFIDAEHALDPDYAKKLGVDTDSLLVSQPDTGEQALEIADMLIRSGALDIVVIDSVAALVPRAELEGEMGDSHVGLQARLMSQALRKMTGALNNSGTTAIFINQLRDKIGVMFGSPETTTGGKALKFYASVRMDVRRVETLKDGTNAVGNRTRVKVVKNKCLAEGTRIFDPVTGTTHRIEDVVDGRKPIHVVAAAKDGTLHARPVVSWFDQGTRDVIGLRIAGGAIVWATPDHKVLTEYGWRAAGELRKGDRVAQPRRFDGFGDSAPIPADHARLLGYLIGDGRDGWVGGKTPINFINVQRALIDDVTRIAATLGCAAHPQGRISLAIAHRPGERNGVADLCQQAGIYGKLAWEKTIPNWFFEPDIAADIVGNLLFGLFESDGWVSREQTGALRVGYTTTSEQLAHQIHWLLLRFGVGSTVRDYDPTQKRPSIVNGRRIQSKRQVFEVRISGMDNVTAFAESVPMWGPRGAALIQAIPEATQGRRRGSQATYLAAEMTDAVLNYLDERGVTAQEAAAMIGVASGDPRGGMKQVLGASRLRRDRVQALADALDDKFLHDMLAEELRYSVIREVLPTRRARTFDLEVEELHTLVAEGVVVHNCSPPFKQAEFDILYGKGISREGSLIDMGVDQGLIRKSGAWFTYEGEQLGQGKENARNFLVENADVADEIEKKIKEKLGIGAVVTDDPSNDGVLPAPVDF
Nature of the experiment: Fluorescence Cell-Free Homogeneous Dose Retest to Identify Inhibitors of RecA-Intein Splicing Activity. [Related pubchem assays (depositor defined):AID2097, AID2223, AID489010, AID492950]. The class given is functional.

For experiment [17], the target named is Cytochrome P450 2D6 (Homo sapiens, UniProt P10635).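 Further: CYP2D6 member of a cytochrome P450 panel assay.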
Experiment [18] has as its target Cytochrome P450 3A4 (Homo sapiens, UniProt P08684).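 Further: CYP3A4 tested as one member of a cytochrome P450 panel screen.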

T5 sequence (P11940 whole entry, the tested form may be a part): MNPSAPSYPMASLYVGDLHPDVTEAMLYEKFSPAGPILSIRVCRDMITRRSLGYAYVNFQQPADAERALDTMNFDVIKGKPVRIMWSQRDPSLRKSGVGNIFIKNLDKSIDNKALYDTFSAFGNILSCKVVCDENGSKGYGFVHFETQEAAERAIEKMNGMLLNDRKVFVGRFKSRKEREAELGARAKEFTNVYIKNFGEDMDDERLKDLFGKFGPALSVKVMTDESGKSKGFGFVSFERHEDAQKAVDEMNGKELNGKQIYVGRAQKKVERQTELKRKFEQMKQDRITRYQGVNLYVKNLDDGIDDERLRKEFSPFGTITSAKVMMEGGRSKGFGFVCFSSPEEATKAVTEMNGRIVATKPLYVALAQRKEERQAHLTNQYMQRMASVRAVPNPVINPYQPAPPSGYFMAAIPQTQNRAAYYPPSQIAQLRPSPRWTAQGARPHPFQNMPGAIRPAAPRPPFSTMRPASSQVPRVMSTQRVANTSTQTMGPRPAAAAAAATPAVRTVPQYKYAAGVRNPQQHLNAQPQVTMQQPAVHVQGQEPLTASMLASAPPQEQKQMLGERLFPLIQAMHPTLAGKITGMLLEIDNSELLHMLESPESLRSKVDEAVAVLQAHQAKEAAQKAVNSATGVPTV
T3 sequence (Q00975 whole entry): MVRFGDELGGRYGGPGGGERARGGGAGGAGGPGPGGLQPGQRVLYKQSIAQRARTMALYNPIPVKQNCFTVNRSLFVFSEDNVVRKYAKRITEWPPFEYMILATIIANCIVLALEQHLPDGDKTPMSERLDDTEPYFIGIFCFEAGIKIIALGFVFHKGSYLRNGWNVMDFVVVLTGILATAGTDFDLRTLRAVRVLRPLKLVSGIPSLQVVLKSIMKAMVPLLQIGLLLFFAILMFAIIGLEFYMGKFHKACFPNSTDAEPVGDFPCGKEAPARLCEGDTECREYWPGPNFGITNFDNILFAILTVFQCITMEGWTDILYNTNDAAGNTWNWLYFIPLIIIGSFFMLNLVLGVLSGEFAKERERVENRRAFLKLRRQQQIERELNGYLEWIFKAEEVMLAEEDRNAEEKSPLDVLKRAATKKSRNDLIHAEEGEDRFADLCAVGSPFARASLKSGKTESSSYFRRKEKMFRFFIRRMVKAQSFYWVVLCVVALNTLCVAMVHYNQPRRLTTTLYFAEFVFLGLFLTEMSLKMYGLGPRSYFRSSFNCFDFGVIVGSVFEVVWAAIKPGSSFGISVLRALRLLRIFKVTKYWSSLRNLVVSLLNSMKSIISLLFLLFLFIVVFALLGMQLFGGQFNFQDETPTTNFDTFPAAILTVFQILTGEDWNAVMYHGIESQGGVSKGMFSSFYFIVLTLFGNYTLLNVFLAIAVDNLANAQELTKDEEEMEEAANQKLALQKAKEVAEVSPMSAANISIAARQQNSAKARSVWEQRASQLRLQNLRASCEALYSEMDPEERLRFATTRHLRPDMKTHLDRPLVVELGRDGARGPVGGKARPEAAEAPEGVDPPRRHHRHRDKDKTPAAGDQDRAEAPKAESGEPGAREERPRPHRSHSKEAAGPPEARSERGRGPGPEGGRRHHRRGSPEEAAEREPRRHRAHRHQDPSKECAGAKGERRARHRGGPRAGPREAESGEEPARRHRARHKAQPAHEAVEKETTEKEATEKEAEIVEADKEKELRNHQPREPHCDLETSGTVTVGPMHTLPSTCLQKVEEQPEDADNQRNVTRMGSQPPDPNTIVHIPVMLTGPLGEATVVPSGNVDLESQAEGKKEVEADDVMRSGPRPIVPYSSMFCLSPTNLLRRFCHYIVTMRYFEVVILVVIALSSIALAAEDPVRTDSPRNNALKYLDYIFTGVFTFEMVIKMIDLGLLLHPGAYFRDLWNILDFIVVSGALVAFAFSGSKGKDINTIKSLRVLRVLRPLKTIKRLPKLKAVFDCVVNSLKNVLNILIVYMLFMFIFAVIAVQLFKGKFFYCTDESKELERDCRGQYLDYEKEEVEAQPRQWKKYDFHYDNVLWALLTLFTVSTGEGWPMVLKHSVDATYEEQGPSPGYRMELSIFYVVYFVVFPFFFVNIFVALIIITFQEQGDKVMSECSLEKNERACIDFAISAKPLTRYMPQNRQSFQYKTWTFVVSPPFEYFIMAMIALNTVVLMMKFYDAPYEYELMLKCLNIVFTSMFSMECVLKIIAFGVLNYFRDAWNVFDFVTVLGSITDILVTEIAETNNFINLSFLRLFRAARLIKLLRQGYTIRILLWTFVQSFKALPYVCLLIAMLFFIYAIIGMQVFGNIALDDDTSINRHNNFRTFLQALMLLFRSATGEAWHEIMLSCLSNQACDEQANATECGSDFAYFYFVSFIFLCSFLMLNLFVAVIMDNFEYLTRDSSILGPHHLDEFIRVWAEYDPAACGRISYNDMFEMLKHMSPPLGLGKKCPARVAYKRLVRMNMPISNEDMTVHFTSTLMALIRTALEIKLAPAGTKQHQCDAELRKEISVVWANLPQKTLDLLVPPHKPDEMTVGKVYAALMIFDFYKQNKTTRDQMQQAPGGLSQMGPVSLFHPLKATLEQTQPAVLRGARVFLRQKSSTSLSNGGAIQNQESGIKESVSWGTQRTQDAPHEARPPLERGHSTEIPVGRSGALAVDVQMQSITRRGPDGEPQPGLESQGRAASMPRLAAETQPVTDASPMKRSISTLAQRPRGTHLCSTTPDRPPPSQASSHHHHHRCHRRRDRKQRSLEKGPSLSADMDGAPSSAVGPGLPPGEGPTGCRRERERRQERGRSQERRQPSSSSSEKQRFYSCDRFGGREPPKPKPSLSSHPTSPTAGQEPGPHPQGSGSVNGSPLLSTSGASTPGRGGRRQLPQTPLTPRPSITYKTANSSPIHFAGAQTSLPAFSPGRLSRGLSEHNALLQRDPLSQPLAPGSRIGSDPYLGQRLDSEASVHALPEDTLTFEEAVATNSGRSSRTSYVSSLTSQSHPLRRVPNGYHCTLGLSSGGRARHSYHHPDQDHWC
T3 sequence (Q02410 whole entry): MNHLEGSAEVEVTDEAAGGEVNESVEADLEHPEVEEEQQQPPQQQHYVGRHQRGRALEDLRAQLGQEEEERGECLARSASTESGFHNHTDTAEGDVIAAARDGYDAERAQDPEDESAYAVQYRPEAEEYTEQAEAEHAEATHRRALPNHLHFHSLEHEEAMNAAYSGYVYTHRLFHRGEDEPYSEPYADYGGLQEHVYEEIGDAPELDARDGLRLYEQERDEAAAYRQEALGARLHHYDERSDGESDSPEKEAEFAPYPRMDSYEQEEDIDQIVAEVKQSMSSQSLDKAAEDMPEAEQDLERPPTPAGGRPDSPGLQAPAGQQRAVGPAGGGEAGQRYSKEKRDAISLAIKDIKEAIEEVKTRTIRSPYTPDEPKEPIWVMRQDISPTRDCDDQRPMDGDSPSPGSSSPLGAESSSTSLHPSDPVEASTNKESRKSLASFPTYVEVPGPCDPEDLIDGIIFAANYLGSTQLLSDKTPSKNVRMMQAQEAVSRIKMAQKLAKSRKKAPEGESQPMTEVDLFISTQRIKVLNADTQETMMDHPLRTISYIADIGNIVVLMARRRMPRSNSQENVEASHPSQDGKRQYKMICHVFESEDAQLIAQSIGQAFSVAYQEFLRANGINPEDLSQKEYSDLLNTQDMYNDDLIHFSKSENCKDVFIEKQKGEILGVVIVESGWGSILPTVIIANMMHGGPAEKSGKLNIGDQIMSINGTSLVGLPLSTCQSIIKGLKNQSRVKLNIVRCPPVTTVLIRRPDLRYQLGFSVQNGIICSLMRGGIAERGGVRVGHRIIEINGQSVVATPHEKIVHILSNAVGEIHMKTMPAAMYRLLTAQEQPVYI
Sequence of Genome polyprotein (P29990 2492-3391 limits assumed): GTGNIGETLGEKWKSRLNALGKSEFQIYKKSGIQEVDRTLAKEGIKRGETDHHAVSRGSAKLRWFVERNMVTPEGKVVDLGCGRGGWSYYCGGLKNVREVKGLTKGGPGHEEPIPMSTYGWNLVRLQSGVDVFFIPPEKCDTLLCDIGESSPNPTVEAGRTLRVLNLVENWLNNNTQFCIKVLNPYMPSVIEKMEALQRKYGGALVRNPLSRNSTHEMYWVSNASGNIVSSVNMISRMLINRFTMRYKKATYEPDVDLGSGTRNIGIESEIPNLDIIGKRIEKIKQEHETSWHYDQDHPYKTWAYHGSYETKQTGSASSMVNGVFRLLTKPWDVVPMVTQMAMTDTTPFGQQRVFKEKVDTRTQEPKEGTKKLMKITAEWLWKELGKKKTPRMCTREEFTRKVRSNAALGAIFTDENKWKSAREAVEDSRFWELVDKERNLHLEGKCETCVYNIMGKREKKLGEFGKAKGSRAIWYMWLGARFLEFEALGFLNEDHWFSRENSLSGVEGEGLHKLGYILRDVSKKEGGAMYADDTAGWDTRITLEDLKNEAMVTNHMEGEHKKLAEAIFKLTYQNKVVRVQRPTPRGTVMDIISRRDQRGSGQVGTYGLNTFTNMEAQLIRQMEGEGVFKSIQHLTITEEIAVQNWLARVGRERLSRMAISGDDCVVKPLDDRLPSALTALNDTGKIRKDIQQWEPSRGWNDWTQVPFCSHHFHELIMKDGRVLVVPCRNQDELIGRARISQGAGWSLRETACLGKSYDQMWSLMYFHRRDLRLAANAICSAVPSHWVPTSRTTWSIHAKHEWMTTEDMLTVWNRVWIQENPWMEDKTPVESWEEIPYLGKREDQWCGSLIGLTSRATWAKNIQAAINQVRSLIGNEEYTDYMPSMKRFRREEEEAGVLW
Sequence of Induced myeloid leukemia cell differentiation protein Mcl-1 (Q07820 whole entry): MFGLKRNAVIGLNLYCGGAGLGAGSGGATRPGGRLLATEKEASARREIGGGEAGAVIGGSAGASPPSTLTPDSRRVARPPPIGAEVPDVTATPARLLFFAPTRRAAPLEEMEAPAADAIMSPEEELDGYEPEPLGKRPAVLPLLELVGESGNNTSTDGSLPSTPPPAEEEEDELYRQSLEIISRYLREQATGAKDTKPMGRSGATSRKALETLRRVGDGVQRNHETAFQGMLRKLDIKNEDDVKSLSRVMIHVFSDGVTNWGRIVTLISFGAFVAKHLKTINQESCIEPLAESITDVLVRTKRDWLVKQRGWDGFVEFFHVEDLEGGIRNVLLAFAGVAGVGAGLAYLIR

Take `CCN(CC)Cc1cc(O)c(CN(CC)CC)cc1O`: the results for the EC50 in [1] and in experiment [2] were 14.2 µM (active) and 2.77 µM (active), respectively. The IC50 in experiment [3] is > 56.8 µM (not active); in [4], 2.05 µM (active); in [5], 1.58 µM (active); in experiment [6], 17.4 µM (active); in experiment [9] it was 28.1 µM (active); in experiment [10], > 66 µM (inactive). For the same compound, the IC50 in experiment [11] is > 66 µM (inactive). Further, the figures for the 50% cytotoxic concentration (CC50) in experiment [7] and in experiment [8] were > 40 µM (active) and > 25 µM (active), respectively. Also, in experiment [12], the AC50 was > 20 µM (inactive).
In the case of `Cc1cnnn1-c1ccc(C(=O)CCl)cc1`, the IC50 in experiment [13] is > 50 µM (inactive). The AC50 was 39.8 µM (inconclusive) in [14], 29.1 µM (active) in experiment [15], 0.0794 µM (inconclusive) in [17] and 25.1 µM (inconclusive) in experiment [18]. In experiment [16], the concentration for a half-maximal effect (EC50) is 11.3 µM (active).

Usually EC50 stands for the concentration at which the effect is half-maximal. Usually CC50 stands for the concentration giving 50% cytotoxicity. The term AC50 denotes the concentration at which the activity in the assay is half-maximal.
